Measured values reported in patent US20090068161A1, “USE OF A COMBINATION OF HESPERIDIN AND OF A MICROORGANISM FOR INFLUENCING THE BARRIER FUNCTION OF THE SKIN” (L'OREAL, priority 2007, published 2009).

Tested on: Episkin® model (reconstituted skin)
Assay: Barrier function of reconstituted skin (Episkin® model): penetration of a nonpenetrating reference compound (cationic anthraquinone)
Assay type: cell-based
Settings: condition E: Episkin® treated from D6 to D13 with 10 μM Hes7Glu; dye 1 mM applied for 4 hours
Excerpt: The conversion of a nutritional agent (hereinafter known as probiotic conditioned medium) after ingestion is first of all stimulated, for the purpose of resulting use directly on a skin model (stage A).
The medium of the cocultures stimulated with Lactobacillus paracasei, resulting from the basolateral compartment, is subsequently withdrawn and its effects, in combination with the most important metabolite of hesperidin, hesperitin-7 glucuronide (Hes7Glu), on the barrier function in the Episkin® model are subsequently tested in vitro (stage B).
A—Preparation of the Probiotic Conditioned Medium
An intestinal barrier model (comprising human enterocyte lines (Caco-2) co-cultured with human leukocytes in a “transwell” cell co-culture system [Haller D, 2000]) has been developed. […]
The receiving liquid (RL) is collected and then assayed directly at the end of application by HPLC. Each point is analysed in duplicate. […]
The concentration is determined using a calibration range produced on the same day. The degrees of penetration are calculated from the ratio of the amount in the RL to the amount applied, the following results having in addition formed the subject of a statistical study using the Wilcoxon tests.

With COc1ccc([C@@H]2CC(=O)c3c(O)cc(O[C@@H]4O[C@H](C(=O)O)[C@@H](O)[C@H](O)[C@H]4O)cc3O2)cc1O [Hes7Glu, hesperitin-7 glucuronide] the “effect on the barrier function (degree of penetration of the cationic anthraquinone)” value was “no significant effect”.
